Experimental data from patent US9949979B2, “Use of inhibitors of the activity or function of PI3K” (NOVARTIS AG, priority 2011, dated 2018).

Columns and labels:
PI3K delta = PI3K delta (Homo sapiens, UniProt O00329); assay: Enzymatic PI3K delta isoform inhibition (lipid kinase activity, Kinase-Glo); format: biochemical; parameters: for the full-length p110-d subunit are generated and fused by overlapping PCR; His tag (C); made in house; host or cells: baculovirus; Tn5 (Trichoplusia ni) or TiniPro insect cells; conditions: Enzymatic Assay
Chain of PI3K delta (O00329 with tags, fused parts or gaps limits assumed): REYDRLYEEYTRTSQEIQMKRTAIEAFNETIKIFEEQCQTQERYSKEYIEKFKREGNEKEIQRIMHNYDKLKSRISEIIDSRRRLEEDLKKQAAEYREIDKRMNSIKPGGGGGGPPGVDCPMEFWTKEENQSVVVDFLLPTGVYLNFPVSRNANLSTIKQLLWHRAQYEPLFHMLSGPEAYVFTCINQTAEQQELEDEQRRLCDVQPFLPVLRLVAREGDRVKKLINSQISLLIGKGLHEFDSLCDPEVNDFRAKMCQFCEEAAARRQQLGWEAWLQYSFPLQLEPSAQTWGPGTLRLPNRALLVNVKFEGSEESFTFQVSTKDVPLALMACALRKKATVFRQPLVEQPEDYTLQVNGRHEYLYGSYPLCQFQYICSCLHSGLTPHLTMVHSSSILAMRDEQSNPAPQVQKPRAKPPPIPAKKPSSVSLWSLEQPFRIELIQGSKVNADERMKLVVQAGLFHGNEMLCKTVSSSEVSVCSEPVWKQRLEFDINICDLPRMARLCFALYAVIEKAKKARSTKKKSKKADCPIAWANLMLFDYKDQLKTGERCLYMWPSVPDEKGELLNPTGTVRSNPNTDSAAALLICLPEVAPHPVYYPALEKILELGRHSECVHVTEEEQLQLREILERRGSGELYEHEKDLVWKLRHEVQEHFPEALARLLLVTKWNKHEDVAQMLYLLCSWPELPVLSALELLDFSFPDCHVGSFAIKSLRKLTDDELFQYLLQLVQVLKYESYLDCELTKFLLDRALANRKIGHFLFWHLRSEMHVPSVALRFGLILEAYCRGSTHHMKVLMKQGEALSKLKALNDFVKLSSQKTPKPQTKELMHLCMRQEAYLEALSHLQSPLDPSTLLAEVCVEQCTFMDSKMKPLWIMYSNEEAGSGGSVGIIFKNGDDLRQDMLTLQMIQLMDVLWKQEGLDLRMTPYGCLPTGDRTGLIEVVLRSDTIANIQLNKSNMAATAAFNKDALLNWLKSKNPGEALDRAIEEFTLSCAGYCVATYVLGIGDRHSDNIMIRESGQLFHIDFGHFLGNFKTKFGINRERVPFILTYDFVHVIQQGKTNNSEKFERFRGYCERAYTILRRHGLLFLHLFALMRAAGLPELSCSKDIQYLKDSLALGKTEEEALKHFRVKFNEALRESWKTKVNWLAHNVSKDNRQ
Procedure: (§1) 1 Determination of Enzymatic PI3K Alpha and PI3K Delta Isoform Inhibition
(§2) 1.1 Test of Lipid Kinase Activity
(§3) The kinase reaction is performed in a final volume of 50 μl per well of a half area COSTAR, 96 well plate. The final concentrations of ATP and phosphatidyl inositol in the assay are 5 μM and 6 μg/mL, respectively. The reaction is started by the addition of PI3 kinase, e.g. PI3 kinase δ.
(§4) p110δ. The components of the assay are added per well as follows: • 10 μl test compound in 5% DMSO per well in […]. • Total activity is determined by addition 10 μl of 5% vol/vol DMSO in the first 4 wells of column 1 and the last 4 wells of column 12. • The background is determined by addition of 10 μM control compound to the last 4 wells of column 1 and the first 4 wells of column 12. • 2 mL ‘Assay mix’ are prepared per plate: • 1.912 mL of HEPES assay buffer • 8.33 μl of 3 mM stock of ATP giving a final concentration of 5 μM per well • 1 μl of [^33P]ATP on the activity date giving 0.05 μCi per well • 30 μl of 1 mg/mL PI stock giving a final concentration of 6 μg/mL per well • 5 μl of 1 M stock MgCl2 giving a final concentration of 1 mM per well • 20 μl of the assay mix are added per well. • 2 mL ‘Enzyme mix’ are prepared per plate (x* μl PI3 kinase p110β in 2 mL of kinase buffer). The ‘Enzyme mix’ is kept on ice during addition to the assay plates. The volume of enzyme is dependent on the enzymatic activity of the batch in use. • 20 μl ‘Enzyme mix’ are added/well to start the reaction. • The plate is then incubated at room temperature for 90 minutes. • The reaction is terminated by the addition of 50 μl WGA-SPA bead (wheat germ agglutinin-coated Scintillation Proximity Assay beads) suspension per well. • The assay plate is sealed using TopSeal-S (heat seal for polystyrene microplates, PerkinElmer LAS [Deutschland] GmbH, Rodgau, Germany) and incubated at room temperature for at least 60 minutes. • The assay plate is then centrifuged at 1500 rpm for 2 minutes using the Jouan bench top centrifuge (Jouan Inc., Nantes, France). • The assay plate is counted using a Packard TopCount, each well being counted for 20 seconds.
(§5) The final concentrations of ATP and phosphatidyl inositol (PI) in the assay are 1 μM and 10 μg/mL, respectively. The reaction is started by the addition of ATP.
(§6) The components of the assay are added per well as follows:
(§7) IC50 is determined by a four parameter curve fitting routine that comes along with “excel fit”.
(§8) To start the reaction, 10 μl of 10 nM PI3 kinase and 5 μg/mL 1-alpha-phosphatidylinositol (PI) are added into each well followed by 10 μl of 2 μM ATP. The reaction is performed until approx 50% of the ATP is depleted, and then stopped by the addition of 20 μl of Kinase-Glo solution (Promega Corp., Madison, Wis., USA). The stopped reaction is incubated for 5 minutes and the remaining ATP is then detected via luminescence. IC50 values are then determined.

PI3K alpha = biological target: T1, PI3K alpha (Homo sapiens, UniProt P42336); assay: Enzymatic PI3K alpha isoform inhibition (lipid kinase activity, Kinase-Glo); format: biochemical; conditions: Enzymatic Assay
T1 construct: His tag (C); made in house; host or cells: baculovirus; Tn5 (Trichoplusia ni) or TiniPro insect cells
T1 sequence (P42336 with tags, fused parts or gaps limits assumed): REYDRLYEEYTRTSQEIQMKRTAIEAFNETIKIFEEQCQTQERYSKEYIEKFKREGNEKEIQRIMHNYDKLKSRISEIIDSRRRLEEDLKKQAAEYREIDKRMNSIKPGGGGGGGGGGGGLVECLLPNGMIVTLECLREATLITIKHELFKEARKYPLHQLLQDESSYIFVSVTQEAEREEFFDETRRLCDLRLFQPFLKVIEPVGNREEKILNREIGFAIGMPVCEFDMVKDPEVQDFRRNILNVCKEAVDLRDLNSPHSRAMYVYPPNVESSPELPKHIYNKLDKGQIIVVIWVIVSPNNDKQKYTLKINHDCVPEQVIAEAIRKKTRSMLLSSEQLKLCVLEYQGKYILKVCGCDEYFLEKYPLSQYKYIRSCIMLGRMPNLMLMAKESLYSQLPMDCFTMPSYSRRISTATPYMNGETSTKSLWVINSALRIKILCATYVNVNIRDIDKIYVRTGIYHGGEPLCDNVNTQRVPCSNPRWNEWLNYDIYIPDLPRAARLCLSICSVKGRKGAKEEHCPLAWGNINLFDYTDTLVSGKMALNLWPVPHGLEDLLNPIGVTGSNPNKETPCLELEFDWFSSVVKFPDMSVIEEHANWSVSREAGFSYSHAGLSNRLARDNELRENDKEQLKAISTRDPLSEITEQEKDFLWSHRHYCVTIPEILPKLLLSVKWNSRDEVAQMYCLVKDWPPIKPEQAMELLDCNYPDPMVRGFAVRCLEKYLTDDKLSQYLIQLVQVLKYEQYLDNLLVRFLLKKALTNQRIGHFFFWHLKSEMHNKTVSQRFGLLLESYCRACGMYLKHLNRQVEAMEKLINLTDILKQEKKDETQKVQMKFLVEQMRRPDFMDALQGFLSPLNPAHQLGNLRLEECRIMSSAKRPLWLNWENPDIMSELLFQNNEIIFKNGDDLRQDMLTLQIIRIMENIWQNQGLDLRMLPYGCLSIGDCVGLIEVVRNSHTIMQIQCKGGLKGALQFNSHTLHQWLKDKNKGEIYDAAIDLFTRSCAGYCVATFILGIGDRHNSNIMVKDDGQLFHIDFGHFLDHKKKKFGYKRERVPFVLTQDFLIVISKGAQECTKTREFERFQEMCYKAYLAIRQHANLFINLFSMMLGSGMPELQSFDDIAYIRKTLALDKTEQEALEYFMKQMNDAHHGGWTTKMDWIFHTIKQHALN
Procedure: as §1, §2, §3, §4, §5, §6, §7, §8

TLR9 [1] = assay: TLR9-induced IFNalpha in human PBMC (CpG2216, AlphaLISA); format: cell-based; conditions: read-out: TLR9-ligand induced IFNα in human PBMC IC50
Procedure: (§9) 2.4 Determination of TLR9-Induced IFNalpha in Human Peripheral Blood Mononuclear Cells (PBMCs) and Isolated Plasmacytoid Dendritic Cells (pDCs)
Human blood (ca. 75 ml) was collected in 10 S-Monovette tubes containing Heparin (S-Monovette 7.5 mL NH Heparin 16 IU/mL blood; Starstedt). Leucosep™ tubes (30 mL #227290; Greiner Bio-one) were prepared by addition of 15 ml lymphocyte separation medium LSM1077™ per tube (#J15-004; PAA Laboratories) and centrifugation for 30 sec at 1000 g. Some 25 ml blood was transferred to Leucosep™ tubes following dilution with equal parts of PBS (without Ca2+/Mg2+; #14190-094). […] The PBMC were counted using a Countess® Automated cell counter (sample was pre-diluted 1:10 in Media, prior to the addition of equal volume (10 μl) of Trypan Blue). […]
(§10) Compounds were pre-diluted in 100% v/v DMSO (#41640-100 mL; Sigma-Aldrich), followed by transfer in Media (to achieve a final DMSO concentration of 0.25%). […] Plates were briefly centrifuged (200×g for 2 min at 22° C.) and supernatant samples (30 μl) removed for quantification of IFNα levels.
For quantification of IFNalpha the human interferon AlphaLISA Kit (#AL264F) from PerkinElmer was used. […] Data were collected for analysis and quantification of IFNα levels.
Data were analysed using Excel XL fit 4.0 (Microsoft) with XLfit add-in (IDBS; version 4.3.2). […]

TLR9 [2] = assay: TLR9-induced IFNalpha in isolated human pDCs (CpG2216, AlphaLISA); format: cell-based; conditions: read-out: TLR9-ligand induced IFNα in human pDCs IC50
Procedure: as §9
Human PBMCs were prepared using Buffy Coats as source material from healthy donations (approx. 50 ml obtained from Blutspendezentrum SRK Basel) and processed as indicated above. […]
as §10
For quantification of IFNalpha the human interferon AlphaLISA Kit (#AL264F) from PerkinElmer was used. […] After incubation, the plates were read with an EnVision™ multiplate reader equipped with the ALPHA option using the instrument's own “AlphaScreen standard settings” (e.g. total measurement time: 550 ms, Laser 680 nm excitation time: 180 ms, mirror: D640 as, emission filter: M570w, center wavelength 570 nm, bandwidth 100 nm, transmittance 75%). Data were collected for analysis and quantification of IFNα levels.
Data were analysed using Excel XL fit 4.0 (Microsoft) with XLfit add-in (IDBS; version 4.3.2). Specific IFNα concentrations were determined following extrapolation to standard curves using human IFNα B (2b). […]

TLR9 [3] = assay: TLR9-induced IL-6 in murine splenocytes (CpG1826, ELISA); format: cell-based, C57BL/6 mice; conditions: Mus musculus, Splenocyte; read-out: TLR9-ligand induced IL-6 in murine splenocytes IC50
Procedure: 2.2 Determination of TLR9-Induced IL-6 in Murine Splenocytes
Spleens were dissected from C57BL/6 mice immediately following euthanasia. Excess fat was trimmed from the spleens prior to mashing the spleen through a […] cell strainer using a plunger from a 5 ml syringe. A single cell suspension was prepared and the volume was adjusted to 15 ml in a 50 ml Falcon tube using cold PBS. Cells were centrifuged at 1500 rpm for 5 minutes at 4° C. degrees prior to removal of supernatant and re-suspension in 5 ml of red blood cell lysis buffer per spleen and incubation for 5 minutes at room temperature. Ice cold PBS (30 ml) was added to the cells prior to centrifugation at 1500 rpm for 5 minutes at 4° C. The supernatant was removed and the cells were washed twice with 40 ml of murine splenocyte culture media (MSCM). […] Cells were re-suspended in 10-20 ml of MSCM and counted using a Countess cell counter. […]
After overnight culture, cells were transferred to 96-well V-bottomed plates and centrifuged at 2000 rpm for 5 minutes at room temperature. Subsequently 150 μl of each culture supernatant was transferred to 96-well flat-bottomed plates and […] were measured using commercially available mouse IL-6 sandwich ELISA kit (R&D systems). […] IL-6 levels were measured using a SpectraMax 190 Plate Reader (450 nm) and analyzed using SoftMax Pro and GraphPad Prism software.

| SMILES | IC50 (PI3K delta) [µM] | IC50 (PI3K alpha) [µM] | IC50 (TLR9 [1]) [µM] | IC50 (TLR9 [2]) [µM] | IC50 (TLR9 [3]) [µM] |
| --- | --- | --- | --- | --- | --- |
| CC(=O)N1CCN(C(=O)c2cccc(-c3ncnc4ccc(-c5ccc(C)nc5)cc34)c2)CC1 [6′] | 0.00863 | 0.589 | – | – | – |
| COc1ccc(-c2ccc3ncnc(-c4cccc(C(=O)N5CCN(C(C)=O)CC5)c4)c3c2)cc1C(F)(F)F [9′] | 0.01 | 1.4 | – | – | – |
| Cc1ccc(-c2ccc3ncnc(-c4cccc(C(=O)N5CCN(C)CC5)c4)c3c2)cn1 [19′] | 0.0115 | 0.678 | – | – | – |
| COc1ccc(-c2ccc3ncnc(-c4cccc(C(=O)N5CCN(C)CC5)c4)c3c2)cc1S(=O)(=O)N1CCCC1 [22′, (3-{6-[4-Methoxy-3-(pyrrolidine-1-sulfonyl)-phenyl]-quinazolin-4-yl}-phenyl)-(4-methyl-piperazin-1-yl)-methanone] | 0.0115 | 0.789 | – | – | – |
| CC1(C)CN(C(=O)c2cncc(-c3ncnc4ccc(-c5cnc(N)nc5)cc34)c2)CCO1 [65′] | 0.01 | 0.64 | – | – | – |
| COc1ccc(-c2ccc3ncnc(-c4cccc(C(=O)N5CCNC(C)(C)C5)c4)c3c2)cn1 [88′] | ≤ 0.00267 | – | – | – | – |
| COc1ncc(N2CCc3ncnc(O[C@H]4CCN(C(=O)C5CCOCC5)C4)c3C2)cc1C [Example 1, {(S)-3-[6-(6-Methoxy-5-methyl-pyridin-3-yl)-5,6,7,8-tetrahydro-pyrido[4,3-d]pyrimidin-4-yloxy]-pyrrolidin-1-yl}-(tetrahydro-pyran-4-yl)-methanone] | – | – | 0.211 | 0.05 | 0.327 |
